Experimental data: patent US6642250B2, “1,8-naphthyridin-2(1H)-one derivatives” (Grelan Pharmaceutical Co., Ltd., priority 1999, dated 2003)
pIC50: −log10 of the molar value.

Legend:
PDE IV = tested on: T1, PDE IV; test: PDE inhibition, type IV PDE (cAMP substrate); assay type: biochemical; settings: PDE IV from porcine hearts, cAMP 1 μM; read-out: Inhibition of PDE Isoenzymes (IC50) IV
T1 construct: other: PDE IV from porcine hearts, cAMP 1 μM
Procedure: (§1) The assays for PDE activity were conducted according to Nicholson et al. method (Br. J. Pharmacol., 97, 889 (1989)).
(§2) Among PDE isozymes, type I, II, III and IV PDEs as used herein were separated from porcine hearts by using an anion exchange chromatography. Type V PDE was also separated from porcine aortae with an anion exchange chromatography and used herein.
(§3) Each PDE isozyme was admixed with ethylene glycol (EG) to adjust the final EG concentration to 30%, then stored at −20° C. and diluted when used. The enzymatic activity for PDE I and V was measured using cGMP as a substrate while that for POE II, III and IV was measured using cAMP.
(§4) [^3H]-cAMP (962 GBq/mmol; Amersham, 25 μl (100,000 cpm)) or [^3H]-cGMP (962 GBq/mmol; Amersham, 25 μl (100,000 cpm)) was added together with each PDE isozyme (25 μl) to an incubation buffer solution with the composition given below to adjust the total volume to 250 μl. Each test compound was dissolved in DMSO to adjust the final concentration to 1% (2.5 μl/tube).
(§5) Incubation buffer solution (pH7.5):
(§6) Tris-HCl (50 mM), magnesium chloride (6 mM), dithiothreitol
(§7) (2.5 mM), 5-nucleotidase (4 μg/ml), bovine serum albumin
(§8) (0.23 mg/ml), and cAMP (1 μM) [or cGMP (1 μM)]
(§9) A mixture of the aforementioned test compound solution and the buffer solution was incubated at 30° C. for 20 minutes. The reaction was quenched by admixing with 1 ml of anion exchange resin slurry (AG1-X8, 200-400 meshes, chloride form; Bio-Rad) to absorb unreacted substrates.
(§10) After the reaction stopped, the mixture was centrifuged at 200×g for 10 minutes, and the resulting supernatant was collected with vials in 250 μl aliquots. To each vial was added 5 ml of ACS-II (scintillator, Amersham). The radioactivity was measured with a liquid scintillator counter for [^3H]-adenosine or [^3H]-guanosine and set as the PDE activity. The measurements were conducted under conditions wherein the enzymatic activity was elevated by adding calmodulin (20 U/ml; Amersham) and calcium chloride (0.1 mM) for PDE-I and cGMP (1 μM) for PDE II, respectively.
(§11) The % inhibition was calculated for test compounds, and IC50 (the concentration of each test compound required for 50% inhibition) was obtained by Probit method. The aforementioned rolipram ((−)-isomer, optical purity: 91% e.e.) known as the PDE IV inhibitor in the prior art was used for the reference compound in this assay.
Further, for a comparison with compounds as disclosed in JP, A, 63-159382 (1988), the PDE-inhibiting activity was also measured for Compounds A and D in Table 1 of JP, A, 63-159382 (1988).

[1] = tested on: actively sensitized guinea pigs; test: Inhibition of antigen-induced immediate asthmatic response (airway resistance, Konzett-Rossler method); assay type: in vivo, guinea pig; settings: for inhibition in vivo at 3 mg/kg: Cavia porcellus, po, orally, 60 minutes prior to antigen-challenge, average of 3 animals, read-out: % Reduction of Increase in Airway Resistance; for % reduction of increase in airway resistance: oral administration at a dose of 1 mg/kg
Procedure: (1) Active Sensitization of Guinea Pigs
Male Hartley outbred guinea pigs were sensitized by administering intraperitoneally physiological saline (0.5 ml) containing ovalbumin (1 mg, antigen) and 5×10^9 inactivated Bordetella pertussis dead cells (adjuvant).
Eleven to thirteen days after the first sensitization, 0.05 ml of an ovalbumin solution (1 mg/ml) (ovalbumin is dissolved in physiological saline) was administered to the lateroabdominal region of each guinea pig intracutaneously. An establishment of sensitization was checked relying on cutaneous reaction. Only guinea pigs wherein significant reddening responses occurred 5 to 10 minutes later were employed in the next measurement test for airway resistance.
(2) Measurement for Airway Resistance in Actively Sensitized-Guinea Pigs
The guinea pigs (3 animals per group) actively sensitized in the above step (1) were employed to measure for their airway pressure according to Konzett-Rossler method (Arch. Exp. Path. Pharmakol., 195, 71 (1940)).
Thirteen days after the final sensitization, guinea pigs fasted overnight, and were on the next day anesthetized with a pentobarbital solution (60 mg/1.2 ml/kg, dissolved in physiological saline, intraperitoneal administration). After the guinea pigs were fixed in a supine position, their trachea was incised followed by insertion with one port of a 4-port cannula. Among the remaining 3 ports, 2 ports were connected to an artificial respirator (Model 683, Harvard). The animals were ventilated with 10 ml/kg of air per ventilation at a rate of 60 beats/min via the artificial respirator from the cannula. One port remainder was connected to a respiratory amplifier (AR-601G, Nihon Kohden, Japan) via an airflow resistance tube (TV-241T, Nihon Kohden, Japan) and a differential pressure transducer (TP-602T, Nihon Kohden, Japan) connected with a control box (RY-111S, Nihon Kohden, Japan). From a catheter inserted into a left carotid artery, blood pressures were monitored with a blood pressure measurement unit (AP641G, NEC Corp., Japan) via a blood pressure transducer (TP-300T, Nihon Kohden, Japan), and heart rates were recorded on a thermal recorder (WT-685G, Nihon Kohden, Japan), relying on blood pressure pulse waves after being led to a cardiograph unit (AT601G, Nihon Kohden, Japan).
After airway pressure became stable, an ovalbumin solution (1 mg/ml, dissolved in physiological saline) was administered at a dose of 1 ml/kg via a tube with which the right jugular vein of guinea pigs was cannulated. Each area under airway pressure-time curve (AUC) was obtained by measuring amplitudes of the airway pressure prior to the antigen-challenge, 1, 2, 3, 4, 5, 10, 15 and 20 minutes post-challenge, and each percent increase (%) in airway resistance was further calculated according to the following equation: [formula]
[…] Control groups received only 0.5% CMC—Na solution in an equivalent amount. The pentobarbital-anesthetization and tracheal incision were conducted 30 minutes prior to the antigen-challenge.
Each percent reduction of increase in airway resistance (each test compound-administered group versus control group) was calculated according to the equation given below. The results are shown in Table 2 wherein each value is an average of 3 animals. Rolipram as described in Assay Example 1 was used for the reference compound in this assay. [formula]
For a comparison with compounds as disclosed in JP, A, 63-159382 (1988), the percent reduction of increase in airway resistance was obtained for the compounds of the present invention (oral administration at a dose of 1 mg/kg), the compounds in Table 1 of JP, A, 63-159382 (1988) (oral administration at a dose of 1 mg/kg), and rolipram (reference compound; oral administration at a dose of 3 mg/kg), respectively, in the same assay manner as in the aforementioned Assay Example 2.

PDE I = test: PDE inhibition, type I PDE (cGMP substrate, calmodulin/CaCl2 added); assay type: biochemical; settings: PDE I from porcine hearts, cGMP 1 μM; read-out: Inhibition of PDE Isoenzymes (IC50) I
Procedure: as §1, §2, §3, §4, §5, §6, §7, §8, §9, §10, §11

PDE V = molecular target: T2, PDE V (Sus scrofa, UniProt A0A287B475); test: PDE inhibition, type V PDE (cGMP substrate); assay type: biochemical; settings: PDE V from porcine aortae, cGMP 1 μM; read-out: Inhibition of PDE Isoenzymes (IC50) V
T2 construct: Type V PDE was also separated from porcine aortae with an anion exchange chromatography and used herein
Procedure: as §1, §2, §3, §4, §5, §6, §7, §8, §9, §10, §11

SMILES	pIC50 (PDE IV)	pIC50 (PDE I)	pIC50 (PDE V)	inhibition in vivo at 3 mg/kg [1] [%]	% reduction of increase in airway resistance [1] [%]
COc1ccc(C2CNC(=O)C2)cc1OC1CCCC1 (single isomer, unassigned) [Rolipram, rolipram, reference compound]	5.49 to 6.11	< 4.00	–	65	–
O=c1c(Cc2cccnc2)cc2cccnc2n1-c1cccc([N+](=O)[O-])c1 [Example No. 2, 1-(3-Nitrophenyl)-3-(pyridin-3-ylmethyl)-1,8-naphthyridin-2(1H)-one]	6.96	< 4.00	4.80	64	–
O=c1c(CCc2cccnc2)cc2cccnc2n1-c1cccc([N+](=O)[O-])c1 [Example No. 5, 1-(3-Nitrophenyl)-3-[2-(pyridin-3-yl)ethyl]-1,8-naphthyridin-2(1H)-one]	7.22	4.66	4.89	90	86
O=c1c(CCc2ccncc2)cc2cccnc2n1-c1cccc([N+](=O)[O-])c1 [Example No. 6, 1-(3-Nitrophenyl)-3-[2-(pyridin-4-yl)ethyl]-1,8-naphthyridin-2(1H)-one]	6.80	< 4.00	4.82	87	–
O=c1c(CCCc2ccncc2)cc2cccnc2n1-c1cccc([N+](=O)[O-])c1 [Example No. 8, 1-(3-Nitrophenyl)-3-[3-(pyridin-4-yl)propyl]-1,8-naphthyridin-2(1H)-one]	6.36	< 4.00	< 4.00	88	88

More lines, main results first:

pIC50 (PDE IV)	pIC50 (PDE I)	pIC50 (PDE V)	SMILES	inhibition in vivo at 3 mg/kg [1] [%]	% reduction of increase in airway resistance [1] [%]
5.89	< 4.00	5.33	O=c1c(CCCc2cccnc2)cc2cccnc2n1-c1cccc([N+](=O)[O-])c1 [Example No. 7, 1-(3-Nitrophenyl)-3-[3-(pyridin-3-yl)propyl]-1,8-naphthyridin-2(1H)-one]	95	–
5.82	< 4.00	4.89	CSc1cccc(-n2c(=O)c(CCCc3ccncc3)cc3cccnc32)c1 [Example No. 10, 1-(3-Methylthiophenyl)-3-[3-(pyridin-4-yl)propyl]-1,8-naphthyridin-2(1H)-one]	82	–
5.82	4.08	5.29	O=c1c(CCCCc2cccnc2)cc2cccnc2n1-c1cccc([N+](=O)[O-])c1 [Example No. 14, 1-(3-Nitrophenyl)-3-[4-(pyridin-3-yl)butyl]-1,8-naphthyridin-2(1H)-one]	92	–
5.72	4.01	5.13	O=c1c(CCCCCc2cccnc2)cc2cccnc2n1-c1cccc([N+](=O)[O-])c1 [Example No. 16, 1-(3-Nitrophenyl)-3-[5-(pyridin-3-yl)pentyl]-1,8-naphthyridin-2(1H)-one]	96	–
5.92	< 4.00	< 4.00	O=c1c(CCCc2ccncc2)cc2cccnc2n1-c1cccnc1 [Example No. 23, 1-(Pyridin-3-yl)-3-[3-(pyridin-4-yl)propyl]-1,8-naphthyridin-2(1H)-one]	90	–
